Test results taken from the supplement of paper PMC10307832.

How the values were obtained:
Assay in all cases: relative viability (nuclei count vs DMSO), 5 days (fraction); higher = more cells survive
Alpelisib + Crizotinib = compound: Cc1nc(NC(=O)N2CCC[C@H]2C(N)=O)sc1-c1ccnc(C(C)(C)C(F)(F)F)c1 [Alpelisib] + C[C@@H](Oc1cc(-c2cnn(C3CCNCC3)c2)cnc1N)c1c(Cl)ccc(F)c1Cl [Crizotinib] (partner 1 µM)
How it was run: (§1)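 Lung cancer cell lines in 1536-well plates were dosed by pin tool the day after seeding, either with one drug alone or with a fixed anchor-drug dose plus five library-drug doses (not always all listed) in √10 steps. After 5 days, cells were fixed and their nuclei stained in one step (final 0.05% Triton X-100, 1% formaldehyde, 1 ug/ml Hoechst), then counted on 4× images. Relative viability is the nuclei count in treated wells divided by that in vehicle wells. Values are medians of duplicate plates.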

OSI-027 + Vorinostat = compound: COc1cccc2cc(-c3nc([C@H]4CC[C@H](C(=O)O)CC4)n4ncnc(N)c34)[nH]c12 [OSI-027] + O=C(CCCCCCC(=O)Nc1ccccc1)NO [Vorinostat] (partner 1 µM)
How it was run: as §1

Alpelisib + Vorinostat = compound: Cc1nc(NC(=O)N2CCC[C@H]2C(N)=O)sc1-c1ccnc(C(C)(C)C(F)(F)F)c1 [Alpelisib] + O=C(CCCCCCC(=O)Nc1ccccc1)NO [Vorinostat] (partner 1 µM)
How it was run: as §1

OSI-027 + Luminespib = compound: COc1cccc2cc(-c3nc([C@H]4CC[C@H](C(=O)O)CC4)n4ncnc(N)c34)[nH]c12 [OSI-027] + CCNC(=O)c1noc(-c2cc(C(C)C)c(O)cc2O)c1-c1ccc(CN2CCOCC2)cc1 [Luminespib] (partner 0.01 µM)
How it was run: as §1

Cell Line | relative viability (Alpelisib + Crizotinib; first compound 0.04 µM) | relative viability (Alpelisib + Crizotinib; first compound 0.1265 µM) | relative viability (Alpelisib + Crizotinib; first compound 0.4 µM) | relative viability (Alpelisib + Crizotinib; first compound 1.265 µM) | relative viability (Alpelisib + Crizotinib; first compound 4 µM) | relative viability (OSI-027 + Vorinostat; first compound 0.01 µM) | relative viability (OSI-027 + Vorinostat; first compound 0.03162 µM) | relative viability (OSI-027 + Vorinostat; first compound 0.1 µM) | relative viability (OSI-027 + Vorinostat; first compound 0.3162 µM) | relative viability (OSI-027 + Vorinostat; first compound 1 µM) | relative viability (Alpelisib + Vorinostat; first compound 0.04 µM) | relative viability (Alpelisib + Vorinostat; first compound 0.1265 µM) | relative viability (Alpelisib + Vorinostat; first compound 0.4 µM) | relative viability (Alpelisib + Vorinostat; first compound 1.265 µM) | relative viability (Alpelisib + Vorinostat; first compound 4 µM) | relative viability (OSI-027 + Luminespib; first compound 0.01 µM) | relative viability (OSI-027 + Luminespib; first compound 0.03162 µM) | relative viability (OSI-027 + Luminespib; first compound 0.1 µM) | relative viability (OSI-027 + Luminespib; first compound 0.3162 µM) | relative viability (OSI-027 + Luminespib; first compound 1 µM)
COR-L23 | 0.622 | 0.613 | 0.698 | 0.478 | 0.459 | 0.524 | 0.436 | 0.403 | 0.408 | 0.297 | 0.438 | 0.474 | 0.398 | 0.283 | 0.272 | 0.851 | 0.671 | 0.772 | 0.499 | 0.289
COR-L 105 | 0.697 | 1 | 0.879 | 0.691 | 0.695 | 0.552 | 0.727 | 0.879 | 0.617 | 0.605 | 0.867 | 0.86 | 0.784 | 0.668 | 0.838 | 0.58 | 0.707 | 0.862 | 0.526 | 0.472
ChaGo-K-1 | 1.13 | – | 1.15 | 0.988 | 0.841 | 0.732 | 0.815 | 0.709 | 0.698 | 0.581 | 0.698 | 0.759 | 0.825 | 0.573 | 0.564 | 0.574 | 0.648 | 0.586 | 0.355 | 0.31
EKVX | 0.956 | 0.918 | 1.06 | 0.749 | 0.619 | 0.661 | 0.618 | 0.649 | 0.561 | 0.4 | 0.584 | 0.657 | 0.928 | 0.597 | 0.456 | 0.743 | 0.8 | 0.872 | 0.727 | 0.604
EMC-BAC-2 | 0.752 | 0.778 | 0.753 | 0.608 | 0.496 | 0.333 | 0.498 | 0.299 | 0.236 | 0.277 | 0.448 | – | 0.455 | 0.278 | 0.261 | 1.24 | 1.17 | 0.95 | 0.864 | 0.379
EPLC-272H | 0.75 | 0.788 | 1.09 | 0.713 | 0.653 | 0.384 | 0.358 | 0.267 | 0.384 | 0.233 | 0.474 | 0.455 | 0.465 | 0.209 | 0.222 | 0.38 | 0.267 | 0.147 | 0.2 | 0.228
H3255 | 0.85 | 1.05 | 1.16 | 0.631 | 0.675 | 0.729 | 0.935 | 0.693 | 0.795 | 0.652 | 0.778 | 0.733 | 0.826 | 0.613 | 0.496 | 0.74 | 0.871 | 0.775 | 0.817 | 0.459
HARA | 1.04 | 1.03 | 1.15 | 0.845 | 0.622 | 0.581 | 0.568 | – | 0.507 | 0.251 | 0.528 | 0.52 | 0.511 | 0.305 | 0.391 | 0.683 | 0.839 | 0.706 | 0.449 | 0.22
HCC-15 | 0.814 | 0.798 | 0.901 | 0.668 | 0.651 | 0.835 | 0.838 | 0.779 | 0.616 | 0.424 | 0.913 | 0.863 | 0.908 | 0.598 | 0.704 | 0.347 | 0.501 | 0.397 | 0.264 | 0.339
HCC-44 | 0.78 | 0.723 | 0.833 | 0.773 | 0.634 | 1.11 | 1.16 | 1.17 | 1.09 | 0.757 | 1.1 | 1.05 | 1.11 | 1.04 | 1.18 | 1.33 | 0.89 | 0.903 | 0.759 | 0.512
HCC-827 | 0.927 | 0.884 | 0.949 | 0.91 | 0.88 | 0.61 | 0.851 | 0.768 | 0.852 | 0.475 | 0.899 | 0.707 | 0.495 | 0.856 | 0.647 | 0.775 | 0.75 | 0.51 | 0.337 | 0.171
HOP-62 | 0.97 | 0.714 | 0.884 | 0.733 | 0.72 | 0.586 | 0.662 | 0.53 | 0.546 | 0.296 | 0.665 | 0.558 | 0.683 | 0.456 | 0.491 | 0.954 | 0.904 | 0.957 | 0.926 | 0.363
LC-2-ad | 0.501 | 0.316 | 0.532 | 0.351 | 0.386 | 0.718 | 0.703 | 0.758 | 0.854 | 0.549 | 0.664 | 0.721 | 0.744 | 0.575 | 0.496 | 1.05 | 1.1 | 0.862 | 0.874 | 0.659
LCLC-97TM1 | 0.343 | 0.295 | 0.427 | 0.208 | 0.157 | 0.816 | 0.642 | 0.699 | 0.503 | 0.345 | 0.673 | 0.58 | 0.63 | 0.33 | 0.291 | 0.846 | 0.688 | 0.776 | 0.378 | 0.211
LCLC-103H | 0.928 | 0.976 | 1.05 | 0.899 | 0.787 | 0.781 | 0.64 | 0.747 | 0.704 | 0.613 | 0.74 | 0.744 | 0.801 | 0.669 | 0.624 | 1.03 | 0.994 | 0.908 | 0.85 | 0.504
LK-2 | 0.284 | 0.188 | 0.215 | 0.233 | 0.252 | 0.272 | 0.296 | 0.244 | 0.176 | 0.179 | 0.261 | 0.264 | 0.261 | 0.234 | 0.306 | 0.172 | 0.193 | 0.159 | 0.173 | 0.137
